“Also recorded” adds a separate entry of the source.
Legend:
[1] = Tissue specific binding of labeled peptides to sections of human teeth (CLSM); conditions: 5(6)-carboxyfluorescein-labeled peptide, ten minutes
From the text: In order to investigate the tissue specificity of DSS peptide binding to tooth tissue, sections of human teeth were exposed to DSS peptides and variants, then imaged by CLSM. The peptides utilized for these experiments were 8DSS (SEQ ID NO:33), 8ASS (SEQ ID NO:26), 8DAA (SEQ ID NO:40), 8NAA (SEQ ID NO:41), 4DSS (SEQ ID NO:31), 4ESS (SEQ ID NO:34), 4NSS (SEQ ID NO:35), 4DTT (SEQ ID NO:36), 4ETT (SEQ ID NO:37), 4NTT (SEQ ID NO:38), and 6DSS (SEQ ID NO:32). Sagittal sections of human teeth extracted during normal clinical practice were polished and then incubated for ten minutes in a solution of the appropriate 5(6) carboxyfluorescein-labeled peptide (12.5pM) containing 10 mM NaCl and 50 mM HEPES, pH 7.0. Control samples were prepared without peptide. Samples were washed extensively after treatment and imaged by CLSM using blue laser illumination (A=488 nm) and a FITC emission filter, with identical camera and microscope settings for each sample. For each section, multiple scans were collected and assembled in an automated mode to generate panels of images representing an area of 13×13 mm, sufficient in most cases to encompass the whole section. […] Significant binding was also seen to the edges of the pulp cavity.

[2] = DSS-mediated remineralization of demineralized tooth surfaces with Quell Desensitizer (SEM); set-up: species or system human; conditions: peptide pretreatment 1 h, then Quell Desensitizer 15 min
Method: Adult human molars, extracted during normal clinical practice, were sagittally sectioned (Accutom-50, Copenhagen, Denmark; CA-231 diamond blade) and demineralized with 19% ethylenediaminotetraacetic acid (EDTA) gel for 1 h, followed by immersion in deionized water and ultrasonication to remove debris. Samples were treated with either 12.5 p.M 8DSS (SEQ ID NO:33) peptide in 50 mM HEPES buffer (pH 7.0) or buffer alone (no peptide) or were left untreated for 1 h prior to remineralization with Quell Desensitizer (Pentron Technologies, Wallingford, Conn.), a remineralization solution consisting of aqueous solutions of calcium chloride and potassium phosphate, for 15 min. Samples were rinsed thoroughly prior to imaging by scanning electron microscopy. Having established that (DSS)n-containing peptides can bind to the dentin surface and that immobilized peptides could cause the accretion of calcium phosphate, we sought to determine whether these peptides could be used to recruit calcium phosphate to the dentin surface. Demineralized sections of extracted human teeth were treated with 8DSS (SEQ ID NO:33) peptide and then subjected to remineralization with Quell Desensitizer (Pentron Technologies), a commercially available remineralization product consisting of aqueous solutions of calcium chloride and potassium phosphate.

DSS DSS DSSDSS DSS DSS DSS DSS (DSSDSSDSSDSSDSSDSSDSSDSS; synthetic calcium-binding peptide 8DSS)
tissue pattern of binding in the tooth section [1]: bound primarily to the mantle dentin
level of binding (staining) to tooth surfaces ([1]; identical settings): the greatest levels of staining
mineral accumulation on demineralized dentin [2]: accumulated a continuous layer of calcium phosphate precipitate; also recorded: markedly enhanced the effectiveness of a commercially available remineralization product

— patent US8889156B2, “Calcium-binding agents induce hair growth and/or nail growth” (priority 2009, dated 2014)
